In patent US10125098B2, “Therapeutic compounds and methods of use thereof” (GENENTECH, INC., priority 2014, dated 2018):
Where a name gives a salt, the structure may show the parent alone. Read-outs that look alike come from different tables or passages of the source.

What was measured:
human NaV1.7 = target: T1, human NaV1.7 (Homo sapiens, UniProt Q15858); assay: Patch voltage clamp electrophysiology assay (EP), NaV1.7; format: cell-based; settings: HEK-293 cells stably expressing NaV1.7 with β1 subunit; whole-cell patch clamp, membrane potential −60 mV (inactivated state)
T1 construct: permanently transfected with an expression vector containing the full-length cDNA coding for the desired human sodium channel α-subunit; expressed in transfected cells; host or cells: HEK-293
Method: (§1) The following patch voltage clamp electrophysiology studies were performed on representative compounds of the invention using human embryonic kidney cells (HEK), permanently transfected with an expression vector containing the full-length cDNA coding for the desired human sodium channel α-subunit, grown in culture media containing 10% FBS, 1% PSG, and 0.5 mg/mL G418 at 37° C. with 5% CO2. […] NaV1.7 and NaV1.5 cDNAs (NM_002977 and AC137587; SCN5A, respectively) were stably expressed in HEK-293 cells. The β1 subunit was coexpressed in both the NaV1.7 and NaV1.5 cell lines.
(§2) Sodium currents were measured using the patch clamp technique in the whole-cell configuration using either a PatchXpress automated voltage clamp or manually using an Axopatch 200B (Axon Instruments) or Model 2400 (A-M systems) amplifier. The manual voltage clamp protocol was as follows: Borosilicate glass micropipettes were fire-polished to a tip diameter yielding a resistance of 2-4 Mohms in the working solutions. The pipette was filled with a solution comprised of: 5 mM NaCl, 10 mM CsCl, 120 mM CsF, 0.1 mM CaCl2, 2 mM MgCl2, 10 mM HEPES, 10 mM EGTA; and adjusted to pH 7.2 with CsOH. The external solution had the following composition: 140 mM NaCl, 5 mM KCl, 2 mM CaCl2, 1 mM MgCl2, 10 mM HEPES; and adjusted to pH 7.4 with NaOH. In some studies, the external sodium was reduced by equimolar replacement with choline. Osmolarity in the CsF internal and NaCl external solutions was adjusted to 300 mOsm/kg and 310 mOsm/kg with glucose, respectively. All recordings were performed at ambient temperature in a bath chamber with a volume of 150 μL. Control sodium currents were measured in 0.5% DMSO. Controls and representative compounds of the invention were applied to the recording chamber through a 4-pinch or 8-pinch valve bath perfusion system manufactured by ALA Scientific Instruments.
(§3) Series resistance compensation was applied (60-80%). […] All statistics in this study are given as mean±SD.
(§4) The membrane potential was maintained at a voltage where inactivation of the channel is complete (which was −60 mV for both NaV1.7 and NaV1.5). The voltage is then stepped back to a very negative (Vhold=[…]) voltage for 20 ms and then a test pulse is applied to quantify the compound block. […] The percent decrease in sodium current following wash-on of compound was taken as the percent block of sodium channels.

NaV1.5 = target: T2, NaV1.5 (Homo sapiens, UniProt Q14524); assay: Patch voltage clamp electrophysiology assay (EP), NaV1.5; format: cell-based; settings: HEK-293 cells stably expressing NaV1.5 with β1 subunit, whole-cell patch clamp, membrane potential −60 mV (inactivated state)
T2 construct: permanently transfected with an expression vector containing the full-length cDNA coding for the desired human sodium channel α-subunit; expressed in transfected cells; host or cells: HEK-293
Method: as §1, §2, §3, §4

hNav1.7 = target: T3, hNav1.7 (Homo sapiens, UniProt Q15858); assay: Tritiated compound binding (LBA) to membranes from cells expressing hNav1.7 and the β1 subunit, competitive binding; settings: competitive binding vs 100 pM [3H]compound, 18 h, room temperature, membranes with hNav1.7 and β1 subunit
T3 construct: expressed in transfected cells
Method in brief: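 Membranes from cells expressing hNav1.7 with β1 were incubated 18 h at room temperature with 100 pM tritiated formula (I) compound and increasing test compound, in 100 mM NaCl, 20 mM Tris HCl pH 7.4, 0.01% BSA.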

[1] = human, HEK-293 cells stably expressing human NaV1.5 with β1 subunit, pH 7.4

T2 sequence (Q14524 whole entry): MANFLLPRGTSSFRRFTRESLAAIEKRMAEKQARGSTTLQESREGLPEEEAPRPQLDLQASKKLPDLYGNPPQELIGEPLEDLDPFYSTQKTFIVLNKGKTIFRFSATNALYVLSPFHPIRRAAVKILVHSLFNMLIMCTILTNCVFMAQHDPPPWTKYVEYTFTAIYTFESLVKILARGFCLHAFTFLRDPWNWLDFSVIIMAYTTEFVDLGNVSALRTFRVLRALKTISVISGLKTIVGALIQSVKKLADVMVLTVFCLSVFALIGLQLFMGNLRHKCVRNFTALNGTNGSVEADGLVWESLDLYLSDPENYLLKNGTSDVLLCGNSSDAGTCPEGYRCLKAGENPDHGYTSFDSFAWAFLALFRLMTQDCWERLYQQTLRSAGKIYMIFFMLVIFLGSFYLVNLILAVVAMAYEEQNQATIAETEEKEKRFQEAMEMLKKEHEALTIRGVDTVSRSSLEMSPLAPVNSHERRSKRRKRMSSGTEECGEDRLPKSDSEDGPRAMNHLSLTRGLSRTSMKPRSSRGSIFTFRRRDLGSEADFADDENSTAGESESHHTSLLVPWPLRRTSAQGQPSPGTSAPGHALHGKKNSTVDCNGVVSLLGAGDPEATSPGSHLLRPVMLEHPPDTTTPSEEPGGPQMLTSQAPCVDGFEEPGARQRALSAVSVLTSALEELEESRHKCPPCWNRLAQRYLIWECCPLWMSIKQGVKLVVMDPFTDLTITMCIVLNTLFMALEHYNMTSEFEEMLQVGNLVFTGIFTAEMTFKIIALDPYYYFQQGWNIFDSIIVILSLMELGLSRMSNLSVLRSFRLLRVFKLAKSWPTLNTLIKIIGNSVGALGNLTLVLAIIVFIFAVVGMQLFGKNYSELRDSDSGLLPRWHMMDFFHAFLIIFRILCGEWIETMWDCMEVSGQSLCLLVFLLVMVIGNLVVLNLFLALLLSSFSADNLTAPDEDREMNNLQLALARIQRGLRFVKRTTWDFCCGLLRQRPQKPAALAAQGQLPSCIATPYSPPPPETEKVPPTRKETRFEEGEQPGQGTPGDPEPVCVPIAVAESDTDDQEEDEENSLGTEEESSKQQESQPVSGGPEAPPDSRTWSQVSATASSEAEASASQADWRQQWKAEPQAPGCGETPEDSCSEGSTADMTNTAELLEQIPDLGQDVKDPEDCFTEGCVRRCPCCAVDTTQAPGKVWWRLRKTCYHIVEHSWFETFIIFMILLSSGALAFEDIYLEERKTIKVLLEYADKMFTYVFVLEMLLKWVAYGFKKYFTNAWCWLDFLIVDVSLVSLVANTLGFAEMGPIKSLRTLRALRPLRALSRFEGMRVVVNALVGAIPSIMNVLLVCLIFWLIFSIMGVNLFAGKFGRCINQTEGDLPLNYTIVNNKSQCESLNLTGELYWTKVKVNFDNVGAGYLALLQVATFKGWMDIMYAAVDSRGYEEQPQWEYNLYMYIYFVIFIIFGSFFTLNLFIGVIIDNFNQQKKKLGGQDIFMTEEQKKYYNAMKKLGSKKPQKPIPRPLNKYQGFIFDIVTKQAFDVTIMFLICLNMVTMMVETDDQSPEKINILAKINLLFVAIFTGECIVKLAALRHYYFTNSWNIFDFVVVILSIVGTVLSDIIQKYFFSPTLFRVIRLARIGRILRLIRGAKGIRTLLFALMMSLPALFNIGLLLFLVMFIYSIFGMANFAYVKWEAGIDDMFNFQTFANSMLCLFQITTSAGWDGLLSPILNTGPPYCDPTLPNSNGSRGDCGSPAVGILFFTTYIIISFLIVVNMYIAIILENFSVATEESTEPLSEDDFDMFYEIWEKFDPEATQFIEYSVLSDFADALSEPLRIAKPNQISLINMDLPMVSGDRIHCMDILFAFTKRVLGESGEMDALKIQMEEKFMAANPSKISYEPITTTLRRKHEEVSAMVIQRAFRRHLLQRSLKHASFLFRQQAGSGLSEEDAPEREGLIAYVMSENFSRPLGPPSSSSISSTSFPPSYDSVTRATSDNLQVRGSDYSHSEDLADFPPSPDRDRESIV
T3 sequence (Q15858 1-1977 isoform Q15858-3): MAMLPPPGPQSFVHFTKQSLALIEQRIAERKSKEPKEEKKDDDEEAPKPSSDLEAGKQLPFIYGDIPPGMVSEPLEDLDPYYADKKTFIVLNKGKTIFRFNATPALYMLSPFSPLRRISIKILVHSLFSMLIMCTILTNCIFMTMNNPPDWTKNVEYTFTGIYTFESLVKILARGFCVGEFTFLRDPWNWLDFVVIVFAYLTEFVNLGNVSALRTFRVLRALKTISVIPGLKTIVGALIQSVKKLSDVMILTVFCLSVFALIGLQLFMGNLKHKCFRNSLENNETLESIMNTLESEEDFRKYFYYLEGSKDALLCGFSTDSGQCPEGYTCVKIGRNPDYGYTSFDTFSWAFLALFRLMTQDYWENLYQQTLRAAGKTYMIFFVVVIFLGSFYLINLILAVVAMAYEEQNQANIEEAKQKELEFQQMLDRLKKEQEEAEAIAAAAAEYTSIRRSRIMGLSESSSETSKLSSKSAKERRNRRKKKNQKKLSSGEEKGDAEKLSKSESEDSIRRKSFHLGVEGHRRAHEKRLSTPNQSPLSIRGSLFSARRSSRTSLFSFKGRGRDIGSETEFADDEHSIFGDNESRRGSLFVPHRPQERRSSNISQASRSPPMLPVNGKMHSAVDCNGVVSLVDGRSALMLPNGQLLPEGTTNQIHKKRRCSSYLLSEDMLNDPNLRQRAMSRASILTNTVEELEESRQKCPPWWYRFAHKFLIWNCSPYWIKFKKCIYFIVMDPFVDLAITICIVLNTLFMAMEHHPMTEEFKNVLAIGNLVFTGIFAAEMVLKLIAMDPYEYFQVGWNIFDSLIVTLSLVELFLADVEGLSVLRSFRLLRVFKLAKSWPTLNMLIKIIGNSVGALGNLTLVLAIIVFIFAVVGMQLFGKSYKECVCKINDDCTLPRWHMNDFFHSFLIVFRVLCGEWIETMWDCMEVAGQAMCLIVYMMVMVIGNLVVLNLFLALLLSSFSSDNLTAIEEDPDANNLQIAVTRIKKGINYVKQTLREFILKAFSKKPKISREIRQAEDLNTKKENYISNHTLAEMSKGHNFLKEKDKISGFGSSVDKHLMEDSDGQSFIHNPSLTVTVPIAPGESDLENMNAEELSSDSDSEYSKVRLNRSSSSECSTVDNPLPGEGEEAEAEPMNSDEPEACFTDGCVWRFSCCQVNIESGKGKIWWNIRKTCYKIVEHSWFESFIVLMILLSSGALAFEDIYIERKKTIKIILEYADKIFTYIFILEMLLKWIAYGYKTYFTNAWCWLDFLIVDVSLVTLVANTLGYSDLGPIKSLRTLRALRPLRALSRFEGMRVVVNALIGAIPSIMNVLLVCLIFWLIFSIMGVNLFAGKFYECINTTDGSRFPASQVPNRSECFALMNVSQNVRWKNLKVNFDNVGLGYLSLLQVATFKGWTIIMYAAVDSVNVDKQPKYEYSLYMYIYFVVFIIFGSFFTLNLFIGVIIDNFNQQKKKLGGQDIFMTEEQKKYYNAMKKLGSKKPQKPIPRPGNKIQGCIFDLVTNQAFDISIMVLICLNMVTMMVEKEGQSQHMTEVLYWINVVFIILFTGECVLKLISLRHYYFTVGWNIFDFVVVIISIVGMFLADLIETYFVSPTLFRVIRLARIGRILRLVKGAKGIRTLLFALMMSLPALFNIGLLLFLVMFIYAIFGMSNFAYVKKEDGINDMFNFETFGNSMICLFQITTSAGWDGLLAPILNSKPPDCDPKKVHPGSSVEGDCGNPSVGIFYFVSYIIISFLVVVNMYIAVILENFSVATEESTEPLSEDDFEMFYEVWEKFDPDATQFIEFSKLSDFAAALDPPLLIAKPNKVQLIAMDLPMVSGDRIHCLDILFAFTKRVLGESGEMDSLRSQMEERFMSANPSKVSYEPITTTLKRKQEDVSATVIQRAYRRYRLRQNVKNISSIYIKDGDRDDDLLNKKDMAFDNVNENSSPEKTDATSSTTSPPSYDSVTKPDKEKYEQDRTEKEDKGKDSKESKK
T3 sequence (Q07699 19-218 partner): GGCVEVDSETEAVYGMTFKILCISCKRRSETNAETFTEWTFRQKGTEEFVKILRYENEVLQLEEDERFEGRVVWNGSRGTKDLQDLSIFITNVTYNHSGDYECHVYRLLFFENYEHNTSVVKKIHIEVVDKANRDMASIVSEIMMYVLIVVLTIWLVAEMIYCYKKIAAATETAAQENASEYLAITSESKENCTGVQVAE
T1 sequence (Q15858 1-1977 isoform Q15858-3): as the sequence (Q15858 1-1977 isoform Q15858-3) above
T1 sequence (Q07699 19-218 partner): as the sequence (Q07699 19-218 partner) above

| Compound | IC50 (human NaV1.7) | IC50 (hNav1.7) | IC50 (NaV1.5; [1]) | IC50 (NaV1.5; read-out: Nav1.5) |
| --- | --- | --- | --- | --- |
| COC1(C(F)(F)F)C[C@@H](C(=O)O)N(C(=O)c2cc(C3CC3)c(OCC34CC5CC(CC(C5)C3)C4)cc2F)C1 (stereo partly drawn) [Example 214, (2S)-1-(4-((Adamantan-1-yl)methoxy)-5-cyclopropyl-2-fluorobenzoyl)-4-methoxy-4-(trifluoromethyl)pyrrolidine-2-carboxylic acid] | 8200 nM | 9700 nM | – | 11000 nM |
| C[C@@H]1[C@@H](C(=O)O)N(C(=O)c2cc(C3CC3)c(OCC3(F)CCN(Cc4cc(C(F)(F)F)ccc4Cl)CC3)cc2F)C[C@@H]1F [Example 111, (2S,3R,4R)-1-(4-((1-(2-chloro-5-(trifluoromethyl)benzyl)-4-fluoropiperidin-4-yl)methoxy)-5-cyclopropyl-2-fluorobenzoyl)-4-fluoro-3-methylpyrrolidine-2-carboxylic acid] | 230 nM | 36 nM | – | 14000 nM |
| C[C@H]1OCN(C(=O)c2cc(C3CC3)c(OCC3CCN(Cc4cc(C(F)(F)F)ccc4Cl)CC3)cc2F)[C@@H]1C(=O)O [Example 228, (4S,5R)-3-(4-((1-(2-chloro-5-(trifluoromethyl)benzyl)piperidin-4-yl)methoxy)-5-cyclopropyl-2-fluorobenzoyl)-5-methyloxazolidine-4-carboxylic acid] | 87 nM | 17 nM | – | 25000 nM |
| C[C@@]1(C(=O)O)CCCN1C(=O)c1cc(C2CC2)c(OCC23CC4CC(CC(C4)C2)C3)cc1F [Example 51, (S)-1-(4-((adamantan-1-yl)methoxy)-5-cyclopropyl-2-fluorobenzoyl)-2-methylpyrrolidine-2-carboxylic acid] | 920 nM | 100 nM | – | 14000 nM |
| CC(C)C[C@H](NC(=O)c1cc(C2CC2)c(OCC23CC4CC(CC(C4)C2)C3)cc1F)C(=O)O [Example 88, (S)-2-(4-(adamantan-1-ylmethoxy)-5-cyclopropyl-2-fluorobenzamido)-4-methylpentanoic acid] | 7000 nM | 430 nM | – | 8200 nM |
| O=C(O)C1=CCCN1C(=O)c1cc(C2CC2)c(OCC23CC4CC(CC(C4)C2)C3)cc1F [Example 167, 1-[4-(1-adamantylmethoxy)-5-cyclopropyl-2-fluoro-benzoyl]-2,3-dihydropyrrole-5-carboxylic acid] | 660 nM | 190 nM | – | 28000 nM |
| CC1(O)C[C@@H](C(=O)O)N(C(=O)c2cc(C3CC3)c(OCC34CC5CC(CC(C5)C3)C4)cc2F)C1 (stereo partly drawn) [Example 218, (2S)-1-(4-(adamantan-1-ylmethoxy)-5-cyclopropyl-2-fluorobenzoyl)-4-hydroxy-4-methylpyrrolidine-2-carboxylic acid] | 1600 nM | 230 nM | – | 24000 nM |
| O=C(O)[C@@H]1[C@@H]2C[C@@H]2CN1C(=O)c1cc(C2CC2)c(OCC23CC4CC(CC(C4)C2)C3)cc1F (racemic) [Example 61, racemate-(1R, 3S, 5R)-2-(4-((adamantan-1-yl)methoxy)-5-cyclopropyl-2-fluorobenzoyl)-2-azabicyclo[3.1.0]hexane-3-carboxylic acid] | 2700 nM | 970 nM | – | 12000 nM |

The remaining compounds from weak to strong by IC50 (human NaV1.7), led by results:

| IC50 (human NaV1.7) | IC50 (hNav1.7) | Compound | IC50 (NaV1.5; [1]) | IC50 (NaV1.5; read-out: Nav1.5) |
| --- | --- | --- | --- | --- |
| 10000 nM | 370 nM | O=C(NC(C(=O)O)C1CCC1)c1cc(C2CC2)c(OCC2(F)CCN(Cc3cc(C(F)(F)F)ccc3Cl)CC2)cc1F (stereo not drawn) [Example 110, 2-(4-((1-(2-chloro-5-(trifluoromethyl)benzyl)-4-fluoropiperidin-4-yl)methoxy)-5-cyclopropyl-2-fluorobenzamido)-2-cyclobutyl acetic acid] | – | 10000 nM |
| 5000 nM | 650 nM | O=C(O)[C@@H]1CCCN1C(=O)c1cc(C2CC2)c(OC[C@H]2CCN(C(c3ccccc3)c3ccccc3)C2)cc1F (single isomer, unassigned) [Example 139a] | – | 25000 nM |
| 1600 nM | 130 nM | O=C(O)[C@@H]1C[C@@H](F)CN1C(=O)c1cc(C2CC2)c(OCC2CCN(Cc3ccc(Cl)c(F)c3)CC2)cc1F [Example 104, (2S,4R)-1-(4-((1-(4-chloro-3-fluorobenzyl)piperidin-4-yl)methoxy)-5-cyclopropyl-2-fluorobenzoyl)-4-fluoropyrrolidine-2-carboxylic acid] | ≥ 30000 nM | – |
| 1400 nM | 100 nM | C[C@@H](c1cc(Cl)cc(Cl)c1)N1CCC(C#N)(COc2cc(F)c(C(=O)N3C[C@H](F)C[C@H]3C(=O)O)cc2C2CC2)CC1 (single isomer, unassigned) [Example 126b] | – | 10000 nM |
| 1400 nM | 98 nM | CC(C)(C)[C@H](NC(=O)c1cc(C2CC2)c(OCC23CC4CC(CC(C4)C2)C3)cc1F)C(=O)O [Example 52, (S)-2-(4-(adamantan-1-ylmethoxy)-5-cyclopropyl-2-fluorobenzamido)-3,3-dimethylbutanoic acid] | – | 7500 nM |
| 1100 nM | 590 nM | O=C(O)[C@@H]1CCCN1C(=O)c1ccc(OCC23CC4CC(CC(C4)C2)C3)c(C(F)(F)F)c1 [Example 85, (S)-1-(4-(adamantan-1-ylmethoxy)-3-(trifluoromethyl)benzoyl)-pyrrolidine-2-carboxylic acid] | – | 17000 nM |
| 550 nM | 230 nM | O=C(O)[C@@H]1CCCN1C(=O)c1cc(C2CC2)c(OCC2(F)CN(Cc3ccc(Cl)cc3C(F)(F)F)C2)cc1F [Example 99, 1-(4-((1-(4-chloro-2-(trifluoromethyl)benzyl)-3-fluoroazetidin-3-yl)methoxy)-5-cyclopropyl-2-fluorobenzoyl)pyrrolidine-2-carboxylic acid trifluoroacetic acid salt] | ≥ 30000 nM | – |
| 510 nM | 23 nM | CC1(COc2cc(F)c(C(=O)N3C[C@H](F)C[C@H]3C(=O)O)cc2C2CC2)CN([C@@H](c2ccccc2)c2cc(Cl)cc(Cl)c2)C1 (single isomer, unassigned) [Example 117] | – | 8500 nM |
| 330 nM | 65 nM | O=C(O)[C@@H]1C[C@@H](F)CN1C(=O)c1cc(C2CC2)c(OCC2(F)CCN(Cc3cc(C(F)(F)F)cc(Cl)c3F)CC2)cc1F [Example 102, (2S,4R)-1-(4-((1-(3-chloro-2-fluoro-5-(trifluoromethyl)benzyl)-4-fluoropiperidin-4-yl)methoxy)-5-cyclopropyl-2-fluorobenzoyl)-4-fluoropyrrolidine-2-carboxylic acid] | – | 23000 nM |
| 330 nM | 24 nM | C[C@@H](c1cc(Cl)cc(Cl)c1)N1CCC(C)(COc2cc(F)c(C(=O)N3C[C@H](F)C[C@H]3C(=O)O)cc2C2CC2)CC1 (single isomer, unassigned) [Example 132a] | – | 17000 nM |
| 240 nM | 25 nM | O=C(O)[C@@H]1[C@H]2C[C@H]2CN1C(=O)c1cc(C2CC2)c(OCC23CC4CC(CC(C4)C2)C3)cc1F (stereo in doubt) [Example 171, 3-[4-(1-adamantylmethoxy)-5-cyclopropyl-2-fluoro-benzoyl]-3-azabicyclo[3.1.0]hexane-4-carboxylic acid] | – | 9000 nM |
| 160 nM | 22 nM | CC(c1cc(Cl)cc(Cl)c1)N1CCC(F)(COc2cc(F)c(C(=O)N3C[C@H](F)C[C@H]3C(=O)O)cc2C2CC2)CC1 (stereo partly drawn) [Example 129, (2S,4R)-1-(5-cyclopropyl-4-((1-(1-(3,5-dichlorophenyl)ethyl)-4-fluoropiperidin-4-yl)methoxy)-2-fluorobenzoyl)-4-fluoropyrrolidine-2-carboxylic acid] | – | 9400 nM |
